Data: patent US20250136594A1 (Tango Therapeutics, Inc., priority 2022, published 2025)

What was measured:
[1] = system: SDMA in HAP1 MTAP-deleted (MTAP-null) cell line (PRMT5 inhibition); assay: SDMA in-cell western assay, HAP1 MTAP-deleted cell line; conditions: for IC50 / IC90: Homo sapiens; for IC50: HAP1, read-out: Hap1 MTAP deleted IC50; for IC90: HAP1, read-out: Hap1 MTAP deleted IC90; for Hap1 MTAP intact/deleted ratio: ratio of SDMA IC50 in HAP1 MTAP-intact to HAP1 MTAP-deleted cell line
[2] = system: HAP1 MTAP-deleted cell line; assay: Viability assay, HAP1 MTAP-deleted cell line; assay type: cell-based; conditions: Homo sapiens; viability assay, HAP1 MTAP-deleted cell line; read-out: Hap1 MTAP deleted viability IC50
[3] = system: SDMA in HAP1 MTAP-intact cell line (PRMT5 inhibition); assay: SDMA in-cell western assay, HAP1 MTAP-intact cell line; conditions: Homo sapiens, HAP1, read-out: Hap1 MTAP intact IC50

SMILES	IC50 [1] [nM]	IC90 [1] [nM]	IC50 [3] [nM]	Hap1 MTAP intact/deleted ratio [1]	IC50 [2] [nM]
CCN(C(=O)C(=O)Nc1cnc(N)c2cn[nH]c12)[C@@H](C)c1ccc(C(F)(F)C(F)(F)F)cc1C [Compound 69, (S)—N^1-(4-amino-1H-pyrazolo[4,3-c]pyridin-7-yl)-N^2-ethyl-N^2-(1-(2-methyl-4-(perfluoroethyl)phenyl)ethyl)oxalamide]	5 to 50	< 75	> 50	B (IC50 ratio greater than or equal to 15 fold but lower than 30 fold)	< 100
CC[C@H](C)CN(Cc1ccccc1C)C(=O)C(=O)Nc1cnc(N)c2cn[nH]c12 [Compound 60, (S)—N^1-(4-amino-1H-pyrazolo[4,3-c]pyridin-7-yl)-N^2-(2-methylbenzyl)-N^2-(2-methylbutyl)oxalamide]	< 5	< 75	5 to 50	A (IC50 ratio greater than or equal to 30 fold)	< 100
COc1ncc(NC(=O)C(=O)N(Cc2ccc(C(F)(F)F)cn2)Cc2ccccc2C)cc1C(N)=O [Compound 143]	< 5	< 75	> 50	A (IC50 ratio greater than or equal to 30 fold)	< 100
CC(C)CN(Cc1ccccc1F)C(=O)C(=O)Nc1cnc(N)c2cn[nH]c12 [Compound 94, N-(4-amino-1H-pyrazolo[4,3-c]pyridin-7-yl)-N′-[(2-fluorophenyl)methyl]-N′-isobutyl-oxamide]	< 5	< 75	5 to 50	B (IC50 ratio greater than or equal to 15 fold but lower than 30 fold)	< 100
C[C@@H](c1ccc(C(F)(F)C(F)(F)F)cc1)N(C)C(=O)C(=O)Nc1cnc(N)c2cn[nH]c12 [Compound 131, N-(4-amino-1H-pyrazolo[4,3-c]pyridin-7-yl)-N′-methyl-N′—[(1S)-1-[4-(1,1,2,2,2-pentafluoroethyl)phenyl]ethyl]oxamide]	5 to 50	> 125	> 50	A (IC50 ratio greater than or equal to 30 fold)	< 100
Cc1cc(NC(=O)C(=O)N(Cc2ccc(C(F)(F)F)cn2)[C@@H]2CC[C@@H](C)c3ccccc32)cnc1N (stereo in doubt) [Compound 51, N-(6-amino-5-methyl-3-pyridyl)-N′-(4-methyltetralin-1-yl)-N′-[[5-(trifluoromethyl)-2-pyridyl]methyl]oxamide]	< 5	< 75	5 to 50	C (IC50 ratio of less than 15 fold)	< 100
Cc1cc(F)cnc1CN(Cc1ccccc1)C(=O)C(=O)Nc1cnc(N)c2cn[nH]c12 [Compound 116, N-(4-amino-2H-pyrazolo[4,3-c]pyridin-7-yl)-N′-benzyl-N′-[(5-fluoro-3-methyl-2-pyridyl)methyl]oxamide]	< 5	< 75	5 to 50	B (IC50 ratio greater than or equal to 15 fold but lower than 30 fold)	< 100
CC(C)N(Cc1ccccc1C(F)(F)F)C(=O)C(=O)Nc1cnc(N)c2cn[nH]c12 [Compound 73, N-(4-amino-1H-pyrazolo[4,3-c]pyridin-7-yl)-N′-isopropyl-N′-[[2-(trifluoromethyl)phenyl]methyl]oxamide]	< 5	< 75	5 to 50	B (IC50 ratio greater than or equal to 15 fold but lower than 30 fold)	< 100
Nc1ncc(NC(=O)C(=O)N(Cc2ccc(C(F)(F)F)cc2)C2CC2)c2[nH]ncc12 [Compound 107, N-(4-Amino-1H-pyrazolo[4,3-c]pyridin-7-yl)-N′-cyclopropyl-N′-[[4-(trifluoromethyl)phenyl]methyl]oxamide]	< 5	< 75	5 to 50	C (IC50 ratio of less than 15 fold)	< 100
CN(Cc1ccc(C(F)(F)F)cc1F)C(=O)C(=O)Nc1cnc(N)c2cn[nH]c12 [Compound 96, N-(4-Amino-1H-pyrazolo[4,3-c]pyridin-7-yl)-N′-[[2-fluoro-4-(trifluoromethyl)phenyl]methyl]-N′-methyl-oxamide]	5 to 50	> 125	> 50	A (IC50 ratio greater than or equal to 30 fold)	100 to 1000
Cn1nccc1CN(Cc1ccccc1)C(=O)C(=O)Nc1cnc(N)c2cn[nH]c12 [Compound 125, N-(4-amino-1H-pyrazolo[4,3-c]pyridin-7-yl)-N′-benzyl-N′-[(2-methylpyrazol-3-yl)methyl]oxamide]	< 5	< 75	5 to 50	B (IC50 ratio greater than or equal to 15 fold but lower than 30 fold)	< 100
CC(c1ncccn1)N(Cc1ccc(C#N)cn1)C(=O)C(=O)Nc1cnc(N)c2cn[nH]c12 (centres unmarked) [Compound 135, N-(4-Amino-1H-pyrazolo[4,3-c]pyridin-7-yl)-N′-[(5-cyano-2-pyridyl)methyl]-N′-(1-pyrimidin-2-ylethyl)oxamide]	5 to 50	> 125	> 50	C (IC50 ratio of less than 15 fold)	100 to 1000
Cc1cc(C(F)(F)F)cnc1CN(Cc1ncccn1)C(=O)C(=O)Nc1cnc(N)c2cn[nH]c12 [Compound 86, N-(4-amino-1H-pyrazolo[4,3-c]pyridin-7-yl)-N′-[[3-methyl-5-(trifluoromethyl)-2-pyridyl]methyl]-N′-(pyrimidin-2-ylmethyl)oxamide]	< 5	< 75	5 to 50	C (IC50 ratio of less than 15 fold)	< 100
C[C@@H](c1ccc(C(F)(F)F)cc1)N(C)C(=O)C(=O)Nc1cnc(N)c2c1cnn2C [Compound 79, N-(7-Amino-1-methyl-pyrazolo[3,4-c]pyridin-4-yl)-N′-methyl-N′—[(1S)-1-[4-(trifluoromethyl)phenyl]ethyl]oxamide]	5 to 50	> 125	> 50	A (IC50 ratio greater than or equal to 30 fold)	100 to 1000
CCC(c1ccc(C(F)(F)F)cn1)N(C)C(=O)C(=O)Nc1cnc(N)c2cn[nH]c12 (centres unmarked) [Compound 138, N-(4-amino-1H-pyrazolo[4,3-c]pyridin-7-yl)-N′-methyl-N′-[1-[5-(trifluoromethyl)-2-pyridyl]propyl]oxamide]	5 to 50	75 to 125	> 50	A (IC50 ratio greater than or equal to 30 fold)	100 to 1000

More lines, main results first:

IC50 [1] [nM]	IC90 [1] [nM]	IC50 [3] [nM]	SMILES	Hap1 MTAP intact/deleted ratio [1]	IC50 [2] [nM]
< 5	< 75	5 to 50	Cc1ccc(CN(Cc2ccccn2)C(=O)C(=O)Nc2cnc(N)c3cn[nH]c23)cc1 [Compound 190, N-(4-amino-1H-pyrazolo[4,3-c]pyridin-7-yl)-N′-(p-tolylmethyl)-N′-(2-pyridylmethyl)oxamide]	A (IC50 ratio greater than or equal to 30 fold)	< 100
< 5	< 75	> 50	Cc1ccccc1CN(CC1CC1)C(=O)C(=O)Nc1cnc(N)c2cn[nH]c12 [Compound 155, N-(4-amino-1H-pyrazolo[4,3-c]pyridin-7-yl)-N′-(cyclopropylmethyl)-N′-(o-tolylmethyl)oxamide]	A (IC50 ratio greater than or equal to 30 fold)	< 100
< 5	75 to 125	> 50	CC(C)CN(Cc1ccccn1)C(=O)C(=O)Nc1cnc(N)c2cn[nH]c12 [Compound 160, N-(4-amino-1H-pyrazolo[4,3-c]pyridin-7-yl)-N′-isobutyl-N′-(2-pyridylmethyl)oxamide]	A (IC50 ratio greater than or equal to 30 fold)	100 to 1000
< 5	< 75	> 50	CCC(C)CN(Cc1ccccn1)C(=O)C(=O)Nc1cnc(N)c2cn[nH]c12 (centres unmarked) [Compound 152, N-(4-amino-1H-pyrazolo[4,3-c]pyridin-7-yl)-N′-(2-methylbutyl)-N′-(2-pyridylmethyl)oxamide]	A (IC50 ratio greater than or equal to 30 fold)	< 100
< 5	< 75	> 50	Cc1cc(C(F)(F)F)ccc1CN(C)C(=O)C(=O)Nc1cnc(N)c2cn[nH]c12 [Compound 170, N-(4-Amino-1H-pyrazolo[4,3-c]pyridin-7-yl)-N′-methyl-N′-[[2-methyl-4-(trifluoromethyl)phenyl]methyl]oxamide]	A (IC50 ratio greater than or equal to 30 fold)	< 100
< 5	< 75	> 50	Cc1ccccc1CN(C(=O)C(=O)Nc1cnc(N)c2cn[nH]c12)[C@H](C)C(C)C [Compound 177, (R)—N^1-(4-amino-1H-pyrazolo[4,3-c]pyridin-7-yl)-N^2-(2-methylbenzyl)-N^2-(3-methylbutan-2-yl)oxalamide]	B (IC50 ratio greater than or equal to 15 fold but lower than 30 fold)	< 100
< 5	< 75	> 50	CC(C)CN(C(=O)C(=O)Nc1cnc(N)c2cn[nH]c12)C(C)c1ccccc1 (centres unmarked) [Compound 172, N-(4-amino-1H-pyrazolo[4,3-c]pyridin-7-yl)-N′-isobutyl-N′-(1-phenylethyl)oxamide]	B (IC50 ratio greater than or equal to 15 fold but lower than 30 fold)	< 100
